According to ChEMBL document CHEMBL1201862, “PubChem BioAssay data set” (2004):
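Five compound concentrations were applied to cells in 96-well plates for 48 hours; endpoints were derived by simple linear interpolation of the resulting dose-response curve. GI50: concentration for 50% inhibition of growth.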 The source made the active and inactive calls. No stated cut-off is given here; in the data, active = GI50 up to about 1.1 µM and inactive = higher.

What was measured:
Assay in all cases: growth of human tumour cells (NCI), 48 h
[1] = test system: MDA-MB-435
[2] = test system: OVCAR-3
[3] = test system: PC-3
[4] = test system: OVCAR-4
[5] = test system: SNB-75
[6] = test system: SF-295
[7] = test system: HL-60
[8] = test system: A549
[9] = test system: U-251
[10] = test system: Malme-3M
[11] = test system: DU-145
[12] = test system: SK-MEL-2
[13] = test system: CAKI-1
[14] = test system: RXF 393
[15] = test system: HT-29
[16] = test system: MCF7
[17] = test system: A498
[18] = test system: SW-620
[19] = test system: TK-10
[20] = test system: CCRF-CEM

| SMILES | GI50 [1] | GI50 [2] | GI50 [3] | GI50 [4] | GI50 [5] | GI50 [6] | GI50 [7] | GI50 [8] | GI50 [9] | GI50 [10] | GI50 [11] | GI50 [12] | GI50 [13] | GI50 [14] | GI50 [15] | GI50 [16] | GI50 [17] | GI50 [18] | GI50 [19] | GI50 [20] |
| --- | --- | --- | --- | --- | --- | --- | --- | --- | --- | --- | --- | --- | --- | --- | --- | --- | --- | --- | --- | --- |
| O=C(O)C(Br)C(Br)C(=O)O (stereo not drawn) | > 100 µM (inactive) | > 100 µM (inactive) | > 100 µM (inactive) | > 100 µM (inactive) | > 100 µM (inactive) | > 100 µM (inactive) | > 100 µM (inactive) | > 100 µM (inactive) | > 100 µM (inactive) | > 100 µM (inactive) | > 100 µM (inactive) | > 100 µM (inactive) | > 100 µM (inactive) | > 100 µM (inactive) | > 100 µM (inactive) | > 100 µM (inactive) | > 100 µM (inactive) | > 100 µM (inactive) | > 100 µM (inactive) | – |
| O=C(O)CCCc1ccc2ccc3ccccc3c2c1 | > 100 µM (inactive) | 53.6 µM (inactive) | 34.8 µM (inactive) | > 100 µM (inactive) | 14 µM (inactive) | 21.8 µM (inactive) | – | 61 µM (inactive) | 71.1 µM (inactive) | 39.4 µM (inactive) | > 100 µM (inactive) | 26.7 µM (inactive) | > 100 µM (inactive) | 15.3 µM (inactive) | 83.9 µM (inactive) | > 100 µM (inactive) | 73.5 µM (inactive) | – | 57.4 µM (inactive) | – |
| O=C1O/C(=C(/Cl)c2cccc3ccccc23)c2ccccc21 | > 100 µM (inactive) | > 100 µM (inactive) | > 100 µM (inactive) | > 100 µM (inactive) | 22.2 µM (inactive) | 47 µM (inactive) | > 100 µM (inactive) | > 100 µM (inactive) | 96.8 µM (inactive) | > 100 µM (inactive) | > 100 µM (inactive) | – | > 100 µM (inactive) | > 100 µM (inactive) | > 100 µM (inactive) | 0.735 µM (active) | > 100 µM (inactive) | > 100 µM (inactive) | > 100 µM (inactive) | > 10 µM (inactive) |
| CC(C)C1=CC(=O)[C@@](C)(C2[C@H](O)C[C@@]3(C)[C@@H]4CC=C5[C@@H](CC[C@@H](OC6OCC(O)C(O)C6OC6OC(C)C(O)C(O)C6O)C5(C)C)[C@]4(C)C(=O)C[C@]23C)O1 (stereo partly drawn) | > 100 µM (inactive) | > 100 µM (inactive) | > 100 µM (inactive) | > 100 µM (inactive) | > 100 µM (inactive) | 59 µM (inactive) | – | > 100 µM (inactive) | > 100 µM (inactive) | > 100 µM (inactive) | > 100 µM (inactive) | – | > 100 µM (inactive) | > 100 µM (inactive) | > 100 µM (inactive) | > 100 µM (inactive) | > 100 µM (inactive) | > 100 µM (inactive) | – | > 100 µM (inactive) |
| FC1CCN(C2(c3cccs3)CCCCC2)CC1 | > 100 µM (inactive) | > 100 µM (inactive) | > 100 µM (inactive) | > 100 µM (inactive) | > 100 µM (inactive) | > 100 µM (inactive) | > 100 µM (inactive) | > 100 µM (inactive) | > 100 µM (inactive) | 25.5 µM (inactive) | > 100 µM (inactive) | > 100 µM (inactive) | > 100 µM (inactive) | > 100 µM (inactive) | 47.8 µM (inactive) | > 100 µM (inactive) | > 100 µM (inactive) | > 100 µM (inactive) | > 100 µM (inactive) | – |
| C#CCOC(=O)C(=[N+]=[N-])C(=O)CC(C)C | > 10 µM (inactive) | > 10 µM (inactive) | > 10 µM (inactive) | > 10 µM (inactive) | – | > 10 µM (inactive) | > 10 µM (inactive) | > 10 µM (inactive) | > 10 µM (inactive) | > 10 µM (inactive) | > 10 µM (inactive) | > 10 µM (inactive) | > 10 µM (inactive) | > 10 µM (inactive) | > 10 µM (inactive) | > 10 µM (inactive) | > 10 µM (inactive) | > 10 µM (inactive) | > 10 µM (inactive) | > 10 µM (inactive) |
| CO/C=C(/C(=O)OC)c1ccccc1[C@@H]1CC1c1cccc(F)c1 (stereo partly drawn) | 19.3 µM (inactive) | 27.6 µM (inactive) | 29 µM (inactive) | 20.2 µM (inactive) | – | 67 µM (inactive) | 18.4 µM (inactive) | 20.6 µM (inactive) | 30.5 µM (inactive) | 16 µM (inactive) | 33 µM (inactive) | 16.9 µM (inactive) | 18.6 µM (inactive) | 58.3 µM (inactive) | 30.4 µM (inactive) | 43.6 µM (inactive) | 25.6 µM (inactive) | – | 37.9 µM (inactive) | 26.5 µM (inactive) |
